Data: patent US8642012B2, “Methods of treatment using ammonia-scavenging drugs” (Hyperion Therapeutics, Inc., priority 2008, dated 2014)
“Also recorded” adds a separate entry of the source. One block for each compound: values may come before it.

Experiments:
venous ammonia = experiment: Adult UCD patients, sodium PBA vs HPN-100: venous ammonia pharmacodynamics; format: in vivo, human; conditions: for Venous ammonia Cmaxss, Mean / Venous ammonia Cmaxss, Median / Venous ammonia TN-AUC, Mean / Venous ammonia TN-AUC, Median: N 10 UCD subjects; for Venous ammonia Cmaxss, Mean / Venous ammonia Cmaxss, Median / Venous ammonia TN-AUC, Mean / Venous ammonia TN-AUC, Median / Venous ammonia Cmaxss / Venous ammonia TN-AUC: seven days of dosing, steady state; for TN-AUC (NH3): plasma ammonia; for NH3: Total AUC / NH3 exposure: DAY (hours 6-12) / NH3 exposure: NIGHT (hours 12-24) / NH3 Cmax: equimolar rates (n=10); for NH3 Cmax: in µmol/L
Text: (§1) Subjects stayed on the 100% HPN-100 dose for one week and were then re-admitted to the study unit for repeated PK (Visit 11-1), ammonia and urine collections.

[1] = Overall findings across the clinical studies (conversion to urinary PAGN, tolerability); format: in vivo, human
Text: These are followed by a biological explanation for the findings.

[2] = Adult UCD patients, sodium PBA vs HPN-100: urinary PAGN excretion; format: in vivo, human; conditions: for PAGN excretion: equimolar rates (n=10)
Text: as §1

[3] = Adult UCD patients, sodium PBA vs HPN-100: safety and patient preference; format: in vivo, human; conditions: UCD patients (n=10)
Text: as §1

[4] = HPN-100 in subjects with cirrhosis and healthy adults: urinary PAGN excretion; format: in vivo, human; conditions: for Molar % of dose ammonia scavenged, Mean (SD): after dosing on day 15 (0-48 hours)
Protocol: (§2) To determine its pharmacokinetic (PK) and pharmacodynamic (PD) profile in patients with liver disease, clinical testing was conducted in which HPN-100 was administered orally as a single dose (100 mg/kg/day on day 1), and twice daily for 7 consecutive days (200 mg/kg/day on days 8 through 14, in two doses of 100 mg/kg per dose), to subjects with hepatic impairment with cirrhosis (Child-Pugh scores of A, B, or C) and to a gender and age-matched control group of healthy adults with normal hepatic function. On day 15, subjects received a single dose of HPN-100 (100 mg/kg). PK blood samples were taken pre-dose, at 15 and 30 minutes post-dose, and at 1, 1.5, 2, 3, 4, 6, 8, 12, and 24 hours post-dose on days 1, 8, and 15, and at 48 hours after dosing on days 1 and 15. On days 9-14, blood samples were taken pre-morning dose and at 2 hours post-morning dose. Urine was collected 0-4, 4-8, 8-12, and 12-24 hours post-dose on days 1, 8, and 15, and at 24-48 hours post-dose on days 1 and 15.

[5] = Adult UCD patients switched from sodium PBA to equimolar HPN-100: plasma PK at steady state; format: in vivo, human
Text: as §1

[6] = HPN-100 in subjects with cirrhosis (Child-Pugh A, B, C) and healthy adults: plasma PK; format: in vivo, human
Protocol: as §2

[7] = ADME study of radio labeled sodium PBA or HPN-100 in cynomolgous monkeys; format: in vivo; conditions: 600 mg/kg single dose
Text: These monkeys were chosen because, like humans (and unlike most other species), they metabolize PAA to PAGN and thus provide a useful model for testing prodrugs of PAA.

[8] = healthy adults; single dose; urine collected to 24 hours
[9] = PK/PD modeling (NONMEM VI) of plasma and urinary metabolite data from the clinical studies; design: species or system human
[10] = individual UCD patients; Brusilow 1991, Brusilow and Finkelstien 1993; cited from earlier work
[11] = Single dose PK in healthy adults: plasma PBA, PAA, PAGN; format: in vivo, human; conditions: healthy volunteers, single dose 3 g/m^2/day PBA mole equivalent
Protocol: To assess its pharmacokinetic (PK) and pharmacodynamic (PD) profile, HPN-100 was administered as a single dose to 24 healthy adults. Pharmacokinetic samples were taken pre-dose and at 15 and 30 minutes post-dose and 1, 1.5, 2, 3, 4, 6, 8, 12, 24, and 48 hours post-dose.
Plasma levels of PAA, PBA, and PAGN were monitored periodically for 12-24 hours by known methods.

[12] = UCD patients, equimolar dosages
[13] = UCD patients, not statistically significant
[14] = plasma, UCD subjects, multiple dose, PBA mole equivalent
[15] = steady state, UCD patients N = 10, arithmetic mean

PAGN excretion [2]: Comparable
Alternative metabolites PAG, PBG and PBGN in plasma ([6]; all plasma samples, all subject groups): below the limit of quantification
Intact HPN-100 in systemic circulation or in excretions [7]: essentially no HPN-100
SMILES: O=C(CCCc1ccccc1)OCC(COC(=O)CCCc1ccccc1)OC(=O)CCCc1ccccc1 [HPN-100, glyceryl tri-[4-phenylbutyrate]]
Venous ammonia Cmaxss, Mean (venous ammonia): 56.3 µmol/L
Venous ammonia Cmaxss, Median (venous ammonia): 60.0 µmol/L
Venous ammonia TN-AUC, Mean (venous ammonia): 26.1 µmol/L
Venous ammonia TN-AUC, Median (venous ammonia): 22.3 µmol/L
Venous ammonia Cmaxss (venous ammonia; Subject 1001): 63.0 µmol/L
Venous ammonia TN-AUC (venous ammonia; Subject 1001): 19.8 µmol/L
Venous ammonia Cmaxss (venous ammonia; Subject 1002): 31.0 µmol/L
Venous ammonia TN-AUC (venous ammonia; Subject 1002): 19.3 µmol/L
Venous ammonia Cmaxss (venous ammonia; Subject 1004): 106 µmol/L
Venous ammonia TN-AUC (venous ammonia; Subject 1004): 35.1 µmol/L
Venous ammonia Cmaxss (venous ammonia; Subject 1006): 13.0 µmol/L
Venous ammonia TN-AUC (venous ammonia; Subject 1006): 8.30 µmol/L
Venous ammonia Cmaxss (venous ammonia; Subject 2001): 33.0 µmol/L
Venous ammonia TN-AUC (venous ammonia; Subject 2001): 22.7 µmol/L
Venous ammonia Cmaxss (venous ammonia; Subject 2003): 74.0 µmol/L
Venous ammonia TN-AUC (venous ammonia; Subject 2003): 21.1 µmol/L
Venous ammonia Cmaxss (venous ammonia; Subject 3002): 36.0 µmol/L
Venous ammonia TN-AUC (venous ammonia; Subject 3002): 21.9 µmol/L
Venous ammonia Cmaxss (venous ammonia; Subject 3004): 75.0 µmol/L
Venous ammonia TN-AUC (venous ammonia; Subject 3004): 38.4 µmol/L
Venous ammonia Cmaxss (venous ammonia; Subject 5001): 57.0 µmol/L
Venous ammonia TN-AUC (venous ammonia; Subject 5001): 35.5 µmol/L
Venous ammonia Cmaxss (venous ammonia; Subject 5002): 75.2 µmol/L
Venous ammonia TN-AUC (venous ammonia; Subject 5002): 39.1 µmol/L
Mean percentage of normal ammonia values (venous ammonia; UCD patients): 83%
Peak venous ammonia concentration (venous ammonia; UCD patients): 56.3 µmol/L
Venous ammonia mean TN-AUC (venous ammonia; UCD patients): 26.1 µmol/L
Ammonia level reached in patients above about 40 μmol/L on sodium PBA (venous ammonia; UCD patients, equimolar dosages, FIG. 12): below 40 μmol/L
TN-AUC (NH3) (venous ammonia; [12]): 26.1 µM
NH3: Total AUC (venous ammonia; UCD patients): 26.1 ± 10.3
NH3 exposure: DAY (hours 6-12) (venous ammonia; UCD patients): 32.9
NH3 exposure: NIGHT (hours 12-24) (venous ammonia; UCD patients): 21.3
NH3 Cmax (venous ammonia; UCD patients): 56.3 ± 27.9
Peak venous ammonia, lowering versus sodium PBA (venous ammonia; [13]): ~29%
Venous ammonia TN-AUC, lowering versus sodium PBA (venous ammonia; [13]): ~31%
Indications of toxicity ([1]; at doses equimolar to the approved PBA dosage of 20 g/day): no indications of toxicity
Dietary protein whose waste nitrogen is eliminated per gram of drug per day ([1]; given 60-75% conversion rate): ~1.3 grams
Effect on creatinine levels ([1]; human, in vivo): little to no effect
Relationship between dose and PAGN output ([1]; up to doses of 17.4 mL): linear relationship
Adverse effects, number of subjects reporting [3]: 5
Adverse effects, total number reported [3]: 15
Effect of hepatic impairment on ammonia-scavenging ability ([4]; Child-Pugh groups vs healthy volunteers): no significant effect
Molar % of dose ammonia scavenged, Mean (SD) ([4]; Child-Pugh A (8)): 159.2 (60.9) Molar %
Molar % of dose ammonia scavenged, Mean (SD) ([4]; Child-Pugh B (8)): 116.3 (58.3) Molar %
Molar % of dose ammonia scavenged, Mean (SD) ([4]; Child-Pugh C (8)): 169.9 (130.1) Molar %
Molar % of dose ammonia scavenged, Mean (SD) ([4]; Healthy Adults (8)): 137.2 (43.9) Molar %
Intact HPN-100 in blood samples ([5]; UCD patients, all blood samples): either not detectable or below the limits of quantitation
PK and PD in fed versus fasted state ([6]; after fasting (day 1) vs with a meal (day 8)): no PK or PD differences; also recorded: indistinguishable

Urinary excretion of PAGN [8]: 4905 ± 1414 mg
Urine collection interval with highest PAGN output ([2]; 24 hour pattern): 6 to 12 h
Conversion into urinary PAGN ([2]; average): ~60%
PAGN excretion [2]: Comparable
Mean PAGN amount excreted, 0-6 hours ([2]; urine): 2,452,838 μg
Mean PAGN amount excreted, 0-12 hours ([2]; urine): 4,859,121 μg
Mean PAGN amount excreted, 12-24 hours ([2]; urine): 4,645,447 μg
Absorption rate constant [9]: 1.34 h⁻¹
Fraction of PBA converted pre-systemically (to PAA and PAGN) [9]: 1%
AUC (PBA) [5, 12]: 739 (49) μg-hr/mL
PBA AUC24 [5, 14]: 739.0 µg·h/mL
PBA Cmax [5, 14]: 141.0 µg/mL
PBA Tmax [5, 14]: 126 min
PAA in plasma Cmaxss [5, 15]: 53.0 µg/mL
PAA in plasma Cminss [5, 15]: 3.56 µg/mL
PAGN in plasma Cmaxss [5, 15]: 83.3 µg/mL
PAGN in plasma Cminss [5, 15]: 16.8 µg/mL
PBA in plasma AUC0-24 [5, 15]: 739 µg·h/mL
PBA in plasma Cmaxss [5, 15]: 141 µg/mL
PBA in plasma Cminss [5, 15]: 0.588 µg/mL
Unchanged PBA as share of the administered dosage ([7]; excreted): 48%
PAGN as share of the administered radio labeled dose ([7]; urine): 23%
PBA AUC24 [11]: 542.6 µg·h/mL
PBA Cmax [11]: 221.0 µg/mL
PBA Tmax [11]: 54 min
PBA T½ [11]: 42 min
SMILES: O=C([O-])CCCc1ccccc1.[Na+] [Sodium PBA, sodium phenylbutyrate]
Venous ammonia Cmaxss, Mean (venous ammonia): 79.1 µmol/L
Venous ammonia Cmaxss, Median (venous ammonia): 83.6 µmol/L
Venous ammonia TN-AUC, Mean (venous ammonia): 38.4 µmol/L
Venous ammonia TN-AUC, Median (venous ammonia): 36.8 µmol/L
Venous ammonia Cmaxss (venous ammonia; Subject 1001): 29.0 µmol/L
Venous ammonia TN-AUC (venous ammonia; Subject 1001): 16.47 µmol/L
Venous ammonia Cmaxss (venous ammonia; Subject 1002): 31.0 µmol/L
Venous ammonia TN-AUC (venous ammonia; Subject 1002): 20.9 µmol/L
Venous ammonia Cmaxss (venous ammonia; Subject 1004): 85.0 µmol/L
Venous ammonia TN-AUC (venous ammonia; Subject 1004): 46.8 µmol/L
Venous ammonia Cmaxss (venous ammonia; Subject 1006): 150 µmol/L
Venous ammonia TN-AUC (venous ammonia; Subject 1006): 71.5 µmol/L
Venous ammonia Cmaxss (venous ammonia; Subject 2001): 88.0 µmol/L
Venous ammonia TN-AUC (venous ammonia; Subject 2001): 52.1 µmol/L
Venous ammonia Cmaxss (venous ammonia; Subject 2003): 31.0 µmol/L
Venous ammonia TN-AUC (venous ammonia; Subject 2003): 17.5 µmol/L
Venous ammonia Cmaxss (venous ammonia; Subject 3002): 108 µmol/L
Venous ammonia TN-AUC (venous ammonia; Subject 3002): 22.3 µmol/L
Venous ammonia Cmaxss (venous ammonia; Subject 3004): 115 µmol/L
Venous ammonia TN-AUC (venous ammonia; Subject 3004): 62.9 µmol/L
Venous ammonia Cmaxss (venous ammonia; Subject 5001): 82.2 µmol/L
Venous ammonia TN-AUC (venous ammonia; Subject 5001): 35.8 µmol/L
Venous ammonia Cmaxss (venous ammonia; Subject 5002): 72.2 µmol/L
Venous ammonia TN-AUC (venous ammonia; Subject 5002): 37.7 µmol/L
Mean percentage of normal ammonia values (venous ammonia; UCD patients): 58%
Peak venous ammonia concentration (venous ammonia; UCD patients): 79.1 µmol/L
Venous ammonia mean TN-AUC (venous ammonia; UCD patients): 38.4 µmol/L
TN-AUC (NH3) (venous ammonia; [12]): 38.4 µM
NH3: Total AUC (venous ammonia; UCD patients): 38.4 ± 19.6
NH3 exposure: DAY (hours 6-12) (venous ammonia; UCD patients): 37.1
NH3 exposure: NIGHT (hours 12-24) (venous ammonia; UCD patients): 36.3
NH3 Cmax (venous ammonia; UCD patients): 79.1 ± 40.1
Conversion into urinary PAGN, overall efficiency on average ([1]; oral, typical/average across clinical studies): 60-75%
Adverse effects, number of subjects reporting [3]: 7
Adverse effects, total number reported [3]: 21
Serious adverse effects [3]: 2 (symptomatic
Serious adverse effects ([3]; listed as PBA): two subjects
Fraction excreted in the urine as PAGN [10]: 80-90%
